The subject of one series is LPS-matured human Mo-DCs. More on the design: key: (−) negligible; (+) low; (++) moderate; (+++) high. The note with it: cytokine; Vit D3-treated and LPS-induced DCs; data from Naranjo-Gomez et al. (2011); cited from earlier work.
The test system of the next series is allogeneic CD3+ T cells. The experiment in a line: Mixed leukocyte reaction ([3H]-thymidine incorporation). The class given is cell-based, human. More on the design: key to Alloproliferation (T CD3^+): (−) negligible; (+) low; (++) moderate; (+++) high. The note with it: functional assay; treated and LPS-induced DCs. The method, then:
CD3^+ T cells (10^5/well) and C4BP-treated (α7β1 and α7β0), or Factor H-treated, and LPS-activated Mo-DCs were seeded in a 96-well round-bottom plate at various DC:T cell ratios (1:40, 1:80 and 1:160) and cultured in X-VIVO 15 medium (Biowittaker, Walkersville, Md.) supplemented with 100 μg/ml of streptomycin, 100 IU/ml of penicillin and 2 mM L-glutamine (all from Invitrogen) plus 2% Human AB Serum. Allospecific proliferation was measured after 5 days of incubation. At day 4, the […] [^3H]-thymidine (1 μCi/well, Perkin Elmer, Boston, Mass.) was added, followed by incubation for another 16 h. Labeled cells were then harvested onto glass-fiber filters with a Filtermate Harvester (Packard, Meriden, Conn.), and the T cell proliferation rate was determined by the amount of [^3H]-thymidine incorporation, which was measured in a TopCount NXT counter (Packard). Results are reported as the mean cpm±SD of thymidine incorporation in quadruplicate culture wells.

The subject of series [1] is human Mo-DCs. The arrangement: key: (−) negligible; (+) low; (++) moderate; (+++) high. The note with it: Vit D3-treated and LPS-induced DCs; data from Heitger (2011); cited from earlier work.
Series [2] has as its system human Mo-DCs. The experiment in a line: Flow cytometry of cell surface markers on treated, LPS-matured Mo-DCs. In kind it is cell-based. More on the design: key to HLA-DR / CD40 / CD83 / CD86 / CD14 / CD1a / CCR7: (−) negligible; (+) low; (++) moderate; (+++) high. Particulars: surface marker; treated and LPS-induced DCs. The method, then: Peripheral blood mononuclear cells (PBMCs) were obtained from buffy coat preparations belonging to healthy donors from the Blood and Tissue Bank (Barcelona, Spain) after Ficoll-Paque™ density centrifugation (GE Healthcare Bio-Sciences AB; Uppsala, Sweden). Monocytes were purified by two different methods: 1) Cells were plated at 1×10^6 cells/ml in 60 mm culture plates (Corning, Spain) in RPMI without serum and allowed to adhere for 2 h at 37° C. in 5% CO2. The non-adherent cells were removed by washing in PBS. […] 2) Cells were purified using colloidal super-paramagnetic microbeads conjugated with monoclonal mouse anti-human CD14 antibodies (MACS, Miltenyi Biotec, Auburn, Calif., or EasySep® Positive Selection Cocktail, StemCell Technologies, Grenoble, France). The purity of CD14^+ cells was tested by CD14 staining and flow cytometry analysis (>90% CD14^+ cells). Monocyte-derived DCs (Mo-DCs) were generated supplementing the monocyte cultures with complete RPMI 1640 medium plus GM-CSF (800 UI/ml) and IL-4 (500 UI/ml) (both from Gentaur, Kampenhout, Belgium) at day 0 and day 3 of culture. For DC maturation, at day 5 iDCs were further stimulated for 48 h with 5 μg/ml LPS (Escherichia coli 055.B5, Sigma L2880, Copenhagen, Denmark).
Cell surface phenotypes were analyzed using the following monoclonal antibodies: FITC-conjugated anti-HLA-DR (Immu-357), FITC-conjugated anti-CD83 (HB15a), FITC-conjugated anti-CD14 (RMO52), PE-conjugated anti-CD40 (MAB89), PE-conjugated anti-CD1a (BL6), PE-conjugated anti-CD80 (MAB104), PE-conjugated anti-CD86 (HA5.2B7) (all from Beckman-Coulter), Alexa Fluor 488-conjugated anti-CCR7 (TG8/CCR7, Biolegend, San Diego, Calif.), and the respective isotype controls from the same commercial sources. After washing with PBS, cells were subsequently stained with 3 μl MoAb/10^5 cells in 100 μl of FACS buffer (PBS containing 1% BSA and 0.1% sodium azide) for 20 min at room temp. Stained cells were analysed using a FACScalibur (Becton Dickinson). Mo-DCs were gated according to forward scatter (FSC) and side scatter (SSC) parameters. The results were analysed using CellQuestPro software (Becton Dickinson).
Both the different C4BP isoforms (α7β1, α7β0 and α6β0), and Factor H were added at 2, 5 and 10 μg/ml throughout Mo-DC differentiation, maturation, or both. Namely, for the differentiation assays the proteins were added at day 0 and replenished at day 3. For the maturation assays the proteins were added at day 5, either alone or combined with LPS. Finally, for the differentiation plus maturation assays the proteins were added at days 0, 3 and 5 (at the last time point, combined with LPS).
Background: A flow cytometer gives signals particle by particle.

Series [3] relates to human Mo-DCs. Put plainly: Apoptosis determination (Annexin V / 7-ADD). The note with it: viability; treated and LPS-induced DCs. The class given is cell-based. The arrangement: key: (−) negligible; (+) low; (++) moderate; (+++) high. The source says: Double staining using with the fluorescent dyes Annexin V (Annexin V-PE Apoptosis Detection Kit I, BD Pharmigen, San Diego, Calif.) and 7-amino-actinomycin D (7-ADD) (BD Pharmigen), and flow cytometry analysis, was employed to assess the viability/apoptosis status of C4BP α7β1-, C4BP α7β0-, recC4BP α6β0-, or Factor H-treated and untreated Mo-DCs.

With `C=C1/C(=C\C=C2/CCC[C@]3(C)[C@@H]([C@H](C)CCCC(C)(C)O)CC[C@@H]23)C[C@@H](O)C[C@@H]1O` [Vit D3, calcitriol, reference compound], in the series on LPS-matured human Mo-DCs, the IL-10 entry is recorded as “++ (*)” and the IL-12 result is listed as “− (*)”. Also, the “Alloproliferation (T CD3^+)” value in the series on allogeneic CD3+ T cells was “−”. Also, the IDO result in the series on human Mo-DCs [1] is listed as “+++ (**)”. In the series with human Mo-DCs [2], the CCR7 entry was “++”, the CD1a entry is “−”, the CD14 result is “+” and the CD40 entry is listed as “+”. Moreover, in the series on human Mo-DCs [2], the CD83 result is listed as “+”, the CD86 entry is reported as “−” and the HLA-DR result is “+”. Besides, the Apoptosis after treatment result in the series on human Mo-DCs [3] is listed as “+”.

Values taken from US10106589B2, “Compositions and methods for immunomodulation” (FUNDACIO INSTITUT D'INVESTIGACIO BIOMEDICA DE BELLVITGE …, priority 2011, dated 2018).
